How the values were obtained:
[1] = test system: human CCR7; assay: CCR7 expression in T-ALL cell lines after GSI treatment; type: cell-based; conditions: for transcription of human CCR7: CEM cells (T-ALL cell line), 1 nM, three days; for CCR7 mRNA and protein expression: T-ALL cell lines, addition of γ-secretase inhibitors
Experimental: (§1) FIGS. 9A-9D show γ-secretase-inhibitor mediated suppression of CCR7 expression. CEM cells (T-ALL cell line) were treated with either Compound E (Comp E) (1 nM) or DBZ (1 nM) for three days. FIG. 9A is a panel of western blots showing the disappearance of the activated N1-IC protein in CEM cells following γ-secretase inhibitor (GSI) treatment. β-actin immunoreactivity is shown as a loading control. […] Error bars define standard deviation from mean.
(§2) RNA was isolated using RNeasy Plus Mini Kit (Qiagen, Valencia, Calif.) columns and used to synthesize cDNA with the SuperScript First-Strand Kit (Invitrogen, Carlsbad, Calif.). Real time PCR was performed using iQ SYBR Green Supermix and an iCycler (Bio-Rad, Hercules, Calif.). Relative expression was determined from cycle threshold (CT) values and was normalized using β-actin as an internal control.
To further correlate Notch 1 activation and CCR7 expression, T-ALL cell lines harboring Notch 1 activating mutations and primary T-ALL samples were analyzed. Strikingly, surface CCR7 was expressed in 80% (4/5) of T-ALL lines (FIG. 8A) and in 73% (8/11) of peripheral blood from primary T-ALL samples (FIG. 8B; #114, #358, and #479). […] To obtain a preliminary estimate of the importance of CCR7 expression in CNS infiltration, two human T-ALL lines were selected (FIG. 8A), one expressing CCR7 (CEM/CCR7^pos) and one deficient in CCR7 expression (DND41/CCR7^neg). Both cell lines were infected using a luciferase-expressing lentivirus. To study disease induction and progression, the cells were transplanted into lymphoid Rag2−/− γc−/− host animals. Transplantation of an identical number of leukemia cells led to distinct survival patterns as host animals which received CEM/CCR7^pos cells succumbed to the leukemic disease earlier that the ones receiving the DND41/CCR7^neg cells (FIG. 3A). Using live animal bioluminescent imaging, a higher tumor load in mice that received the […] cell line was observed (FIG. 3B). Most importantly, the brain and spinal cord of CEM/CCR7^pos-transplanted hosts (but not the DND41/CCR7^neg) were infiltrated by T-ALL cells (FIG. 3C). Further histopathological analysis confirmed the localization of the infiltrating cells in leptomeningeal spaces (FIG. 3D).

[2] = test system: Hes1; assay: Transcription of Notch target gene Hes1 in CEM cells after GSI treatment; type: cell-based, human; conditions: CEM cells (T-ALL cell line), 1 nM, three days
Experimental: as §1, §2

[3] = test system: activated N1-IC protein; assay: Western blot of activated N1-IC protein in CEM cells after γ-secretase inhibitor treatment; type: cell-based, human; conditions: CEM cells (T-ALL cell line), 1 nM, three days
Experimental: as §1

[4] = test system: Dtx1; assay: Transcription of Notch target gene Dtx1 in CEM cells after GSI treatment; type: cell-based, human; conditions: CEM cells (T-ALL cell line), 1 nM, three days
Experimental: as §1, §2

SMILES | transcription of human CCR7 [1] | CCR7 mRNA and protein expression [1] | transcription of Hes1 [2] | activated N1-IC protein (western blot) [3] | transcription of Dtx1 [4]
C[C@H](NC(=O)Cc1cc(F)cc(F)c1)C(=O)N[C@H]1N=C(c2ccccc2)c2ccccc2N(C)C1=O [Compound E] | suppressed | significant down-regulation | efficiently suppressed | disappearance | efficiently suppressed
C[C@H](NC(=O)Cc1cc(F)cc(F)c1)C(=O)N[C@@H]1C(=O)N(C)c2ccccc2-c2ccccc21 [DBZ] | suppressed | significant down-regulation | efficiently suppressed | disappearance | efficiently suppressed

— patent US9101559B2, “Leukemic cell CNS infiltration controlled by notch-induced chemotaxis” (New York University, priority 2009, dated 2015)
